# Where a name gives a salt, the structure may show the parent alone.
# Experiments:
# [1] = system: epidermal keratinocytes of human neonates; assay: Oxytocin release by differentiated keratinocytes after ATP gamma s addition (ELISA of culture medium); format: cell-based
# Procedure: The keratinocytes used herein were epidermal keratinocytes of human neonates up to a passage number of 4 (Kurabo Industries Ltd.). The culture medium was Defined Keratinocyte-SFM (Invitrogen Japan K.K.). The keratinocytes were grown to confluence in 10-cm dishes at 37° C. for several days with the culture medium replaced on alternate days, and then the calcium chloride concentration in the culture medium was increased to 1.8 mM thereby inducing differentiation. After a lapse of 45 hours, adenosine-5′-(3-thio)triphosphoric acid tetralithium salt (Sigma Co., hereinafter referred to as “ATP gamma s-Li”) was added to each dish so as to make the final concentrations of 0, 10, 30, 100, and 300 μM, and the incubation of culture was continued at 37° C. The culture medium was collected 10 minutes after the addition of ATP gamma s, and the amount of oxytocin was measured with the ELISA method.
# Oxytocin in the collected culture medium was purified and concentrated using a reversed phase column (C18 Sep-pak Light, Waters Co.), and eluted with an aqueous solution containing 60% acetonitrile and 0.1% trifluoroacetic acid. More specifically, the column eluate fraction containing oxytocin was freeze-dried, and dissolved again in a small amount of buffer solution (included in the EIA kit), and the oxytocin in the culture medium was concentrated at least 20 fold. Thereafter, the oxytocin concentration in the concentrated oxytocin solution was measured by the competitive ELISA method using Oxytocin EIA Kit (Assay Designs, Inc). The measurement procedure described in the instruction manual attached to the kit was followed. […] The absorbance of the color reaction by alkaline phosphatase was measured, and a semilogarithmic standard curve was generated by plotting the absorbance change due to the competitive inhibition against the known amount of oxytocin. The standard curve was used to determine the amount of oxytocin corresponding to the absorbance of the sample. […]
# [2] = system: keratinocytes; conditions: added to keratinocytes; J. Clin. Invest. (1992) 90, 42-51; Biochem. J. (2004) 380, 329-338; cited from earlier work
Structure (SMILES),effect of EGTA on the increase of oxytocin concentration with increases of ATP gamma s ([1]; 2 mM EGTA added 5 minutes before ATP gamma s),Ca2+ concentration in the keratinocytes [2],"change of oxytocin concentration in the culture media with ATP gamma s concentration ([1]; 0, 10, 30, 100, 300 μM ATP gamma s, 10 minutes, no EGTA)","oxytocin concentration in the culture medium ([1]; 300 μM ATP gamma s, medium collected 10 minutes after addition, 37° C., ELISA)"
"O=C(O)CN(CCOCCOCCN(CC(=O)O)CC(=O)O)CC(=O)O [EGTA, ethylene glycol bis(2-aminoethyl ether) tetraacetic acid]",inhibited,,,
Nc1ncnc2c1ncn2[C@@H]1O[C@H](COP(=O)(O)OP(=O)(O)OP(=O)(O)O)[C@@H](O)[C@H]1O [ATP],,increase the Ca^2+ concentration in the keratinocytes in a concentration-dependent manner,,
"Nc1ncnc2c1ncn2[C@@H]1O[C@H](COP(=O)(O)OP(=O)(O)OP(O)(O)=S)[C@@H](O)[C@H]1O [ATP gamma s, adenosine-5′-(3-thio)triphosphoric acid tetralithium salt]",,increase the Ca^2+ concentration in the keratinocytes in a concentration-dependent manner,increased with increases of ATP gamma s,exceeded 7 pg/mL
